The text below walks through data of article PMC6637749 (Journal of medicinal chemistry, 2018).

In general, pIC50 refers to −log10 of the IC50, conventionally taken in molar units.

In data set [1] the test system is panel of melanoma cell lines (A375, M14, RPMI7951). Description: Antiproliferative activity, panel of melanoma cell lines. Format: cell-based, human. The settings on record: for pIC50: Homo sapiens, 72 h, read-out: IC50 values, range over the melanoma cell lines.
Another data set concerns the target Bovine brain tubulin (Bos taurus, UniProt P81947+Q6B856). Description: Tubulin polymerization assay. Format: biochemical. The settings on record: 10 μM compound, absorbance at 340 nm, 37 °C; vehicle control Vmax = 27.
The next data set deals with A375 melanoma xenograft. The format is in vivo. The settings on record: doses up to 30 mg/kg i.p., nude mice.
Data set [2] has as its system docetaxel-resistant DU145/TxR prostate cancer cell line. Description: Cytotoxicity. Format: cell-based. The settings on record: at concentrations up to 1 μM.

pIC50: −log10 of the molar value.

Chain of Bovine brain tubulin (Q6B856 whole entry): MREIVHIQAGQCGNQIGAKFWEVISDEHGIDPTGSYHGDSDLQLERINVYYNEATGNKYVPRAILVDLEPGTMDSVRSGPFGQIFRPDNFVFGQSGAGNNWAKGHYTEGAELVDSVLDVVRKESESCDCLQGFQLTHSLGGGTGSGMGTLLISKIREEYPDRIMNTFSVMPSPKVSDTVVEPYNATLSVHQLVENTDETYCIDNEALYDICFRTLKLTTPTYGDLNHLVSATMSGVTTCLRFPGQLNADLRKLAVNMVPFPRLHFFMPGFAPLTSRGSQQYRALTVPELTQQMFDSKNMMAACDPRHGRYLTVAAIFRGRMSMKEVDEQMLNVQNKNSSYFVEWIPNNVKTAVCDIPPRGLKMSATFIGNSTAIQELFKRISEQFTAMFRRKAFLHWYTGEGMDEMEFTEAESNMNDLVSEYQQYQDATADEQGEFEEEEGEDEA
Chain of Bovine brain tubulin (P81947 whole entry): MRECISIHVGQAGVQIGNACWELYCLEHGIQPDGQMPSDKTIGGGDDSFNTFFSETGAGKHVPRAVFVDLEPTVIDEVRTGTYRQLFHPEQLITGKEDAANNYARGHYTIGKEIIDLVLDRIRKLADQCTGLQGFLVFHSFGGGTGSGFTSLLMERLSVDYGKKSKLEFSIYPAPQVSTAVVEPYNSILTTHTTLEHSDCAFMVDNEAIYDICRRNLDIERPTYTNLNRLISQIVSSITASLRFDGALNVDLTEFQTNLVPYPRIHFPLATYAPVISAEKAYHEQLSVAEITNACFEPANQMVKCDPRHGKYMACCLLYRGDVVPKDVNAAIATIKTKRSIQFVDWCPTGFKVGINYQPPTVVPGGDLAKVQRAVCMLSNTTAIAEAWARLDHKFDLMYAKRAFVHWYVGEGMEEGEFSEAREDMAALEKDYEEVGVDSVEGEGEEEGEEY

As for `O=C(c1ccc2c(c1)OCCO2)c1c[nH]c(-c2c[nH]c3ccccc23)n1` [13a, (2-(1H-Indol-3-yl)-1H-imidazol-5-yl)(2,3-dihydrobenzo[b][1,4]-dioxin-6-yl)methanone], in data set [1], the negative-log IC50 (pIC50) was 6.66 to 6.92.

With `COc1cc(C(=O)c2c[nH]c(-c3c[nH]c4ccccc34)n2)cc2c1OCCO2` [13c, (2-(1H-Indol-3-yl)-1H-imidazol-5-yl)(8-methoxy-2,3-dihydrobenzo[b][1,4]dioxin-6-yl)methanone], in data set [1], the pIC50 is 7.53 to 7.95.

For the compound `COc1cc(C(=O)c2c[nH]c(-c3c[nH]c4ccccc34)n2)cc2c1OCO2` [13d, (2-(1H-Indol-3-yl)-1H-imidazol-5-yl)(7-methoxybenzo[d][1,3]-dioxol-5-yl)methanone], the pIC50 in data set [1] was 8.25 to 8.46. The “fold more active than 13b” value in data set [1] (antiproliferative IC50 compared with 13b) is reported as 30 fold. In data set [1] (antiproliferative IC50 compared with 13c), the “fold more potent than 13c” value is ~ 4 fold.

For `COc1cc(C(=O)c2c[nH]c(-c3c[nH]c4ccccc34)n2)cc2c1OCCCO2` [13e, (2-(1H-Indol-3-yl)-1H-imidazol-5-yl)(9-methoxy-3,4-dihydro-2H-benzo[b][1,4]dioxepin-7-yl)methanone], the negative logarithm of the IC50 (pIC50) in data set [1] was 7.32 to 7.49.

For `COc1cc(C(=O)c2c[nH]c(-c3c[nH]c4ccccc34)n2)cc2c1OC=CO2` [13f, (2-(1H-Indol-3-yl)-1H-imidazol-5-yl)(8-methoxybenzo[b][1,4]-diOXin-6-yl)methanone], the pIC50 in data set [1] was 8.48 to 8.96. Also, on Bovine brain tubulin, the “tubulin polymerization Vmax” value was 0. Moreover, in the data set with A375 melanoma xenograft, the “apparent toxicity (mouse weights and activities)” value is on record as “without causing apparent toxicity”.

With `COc1cc(C(=O)c2c[nH]c(-c3cccc4[nH]ccc34)n2)cc2c1OC=CO2` [compound 19, (2-(1H-Indol-4-yl)-1H-imidazol-5-yl)(8-methoxybenzo[b][1,4]-diOXin-6-yl)methanone], the “fold reduced antiproliferative activity compared to 13f” value in data set [1] (compared with 13f) is reported as ~ 11 fold.

As for `COc1cc(C(=O)c2c[nH]c(-c3c[nH]c4cccc(C)c34)n2)cc2c1OC=CO2` [compound 25, (8-Methoxybenzo[b][1,4]dioxin-6-yl) (2-(4-methyl-1H-indol-3-yl)-1H-imidazol-5-yl)methanone], in data set [1], the negative logarithm of the IC50 (pIC50) is 8.06 to 8.21.

On to `CC(=O)O[C@H]1C(=O)[C@@]2(C)[C@H]([C@H](OC(=O)c3ccccc3)[C@]3(O)C[C@H](OC(=O)[C@H](O)[C@@H](NC(=O)c4ccccc4)c4ccccc4)C(C)=C1C3(C)C)[C@]1(OC(C)=O)CO[C@@H]1C[C@@H]2O` [paclitaxel], for which the “effect in DU145/TxR cells” value in data set [2] was “no effect was observed at all”.
